The test system of data set [1] is 9L. Type of data set: cell-based. Particulars: Rattus norvegicus, read-out: LD90 (the source's name).
Data set [2] deals with H80. Type of data set: cell-based. Particulars: Homo sapiens; continuous 6-8 days exposure; read-out: LD90 (the source's name). The protocol:
(§1) Cell culture. Tumor sensitivity to paclitaxel was measured by the clonogenic assay described by Rosenblum, et al., Cancer 41:2305-2314 (1978) and Salcman, et al., Neurosurgery 29:526-531 (1991) with rat glioma (9L, F98), human glioma (H80, U87, U373), and human medulloblastoma (D324) cell lines. Cells were grown and propagated in minimum essential medium (MEM) supplemented with 10% fetal bovine serum, L-glutamine, penicillin, and streptomycin and incubated at 37° C. in an atmosphere containing 5% CO2. At the start of each assay, 600 tumor cells in 2 ml of medium were plated on Falcon 6-well tissue-culture plates (Becton-Dickenson, Lincoln Park, N.J.). After incubating for 24 h, the medium was removed from the places and replaced with 2 ml of medium containing paclitaxel and 0.1% dimethylsulfoxide (DMSO). The treatment solutions were prepared as described by Roytta et al., Prostate 11:95-106 (1987). The paclitaxel treatment solution was then either replaced with fresh paclitaxel-free media containing 0.1% DMSO after 1 or 24 h or was left on the places for the 6- to 8-day incubation period. […] The colonies on each plate were counted and the result was expressed as a percentage of the colonies formed on control plates not exposed to paclitaxel. […] Graphs were prepared and analyzed using Cricket Graph v. […]

In data set [3] the test system is U87. It is filed as cell-based. As to conditions: Homo sapiens, U-87 MG; continuous 6-8 days exposure; read-out: LD90 (the source's name). The protocol:
as §1

Data set [4] is described as follows: In vitro release of paclitaxel from PCPP-SA (20:80) polymer discs. It is filed as physicochemical. As to the method:
Solid paclitaxel, obtained from Napro Biotherapeutics (Boulder, Colo.) or from the National Cancer Institute (Bethesda, Md.), was mixed with poly[bis(p-carboxyphenoxy)propane-sebacic acid] copolymer (PCPP-SA) (20:80) synthesized according to the method of Domb, A. J., and R. Langer (J. Polym. Sci. 25:3373-3386 (1987)), the teachings of which are incorporated herein by reference, to give a mixture containing 0, 20, 30, or 40% paclitaxel by weight. The paclitaxel-polymer mixture was dissolved in methylene chloride (Fluka, Switzerland) to give a 10% solution (w:v). The solvent was evaporated with a nitrogen stream to yield a dry powder. […]
The efficiency of the delivery of paclitaxel incorporated into a biodegradable polymer into the surrounding medium was assessed in vitro as follows. […]
Protocol. […] The releasing medium was replaced at specified times during the 45-day (1000 hour) incubation period, and the recovered solutions were analyzed by scintillation counting and high pressure liquid chromatography (HPLC). […] Radioactive analysis to quantify the amount of paclitaxel release was done by mixing 200 μl of the releasing buffer solution with 4 ml of a scintillation mixture composed of toluene and Lumax (Landgraat, The Netherlands) scintillation mixture in a 2:1 volume ratio. This solution was counted on a 1211 Rack β-liquid scintillation counter (LKB-Wallac OY, Finland). […]

In data set [5] the test system is U373. Kind of data set: cells. As to conditions: Homo sapiens, U373 MG, read-out: ID90.
The conditions of data set [6]: cell-culture medium; cited from earlier work.
The conditions of data set [7]: human, in vivo; cited from earlier work.
For data set [8] the following is noted: in vivo; cited from earlier work.

Consider one molecule from patent publication USRE37410E, “Controlled local delivery of chemotherapeutic agents for treating solid tumors” (priority 1999, dated 2001).

Like-named read-outs stand apart in the source and are kept apart here.

For `CC(=O)O[C@H]1C(=O)[C@@]2(C)[C@H]([C@H](OC(=O)c3ccccc3)[C@]3(O)C[C@H](OC(=O)[C@H](O)[C@@H](NC(=O)c4ccccc4)c4ccccc4)C(C)=C1C3(C)C)[C@]1(OC(C)=O)CO[C@@H]1C[C@@H]2O` [paclitaxel], the IC90 in data set [1] (1 h, 1 h exposure) amounted to 890 nM; in data set [1] (24 h, 24 h exposure) it was 100 nM; in data set [2], 19 nM; in data set [3], 9.1 nM; in data set [5] (1 h) it was 280 nM; in data set [5] (24 h), 29 nM. Also, in data set [5], the IC90 is 7.2 nM. Also, in data set [4] (each of the polymer loadings, phosphate buffer pH 7.4, 37° C), the release profile result was “released biphasically from the polymer, with an initial burst phase followed by a slower constant release phase”. Further, in data set [4] (released into buffer), the “identity of released paclitaxel by HPLC” value was “corresponded with intact paclitaxel”. In addition, the “hydrolysis to inactive compounds” value in data set [6] is “less than 10%”. For the same molecule, the clearance result in data set [7] is “extensive non-renal clearance”. Moreover, the “penetration of intact blood-brain barrier” value in data set [8] is on record as “penetrates the intact blood-brain barrier poorly, if at all”.
